This assay has as its target c-Met (Homo sapiens, UniProt P08581). As to the kind of experiment: Delfia autophosphorylation kinase assay on the c-Met. More on the design: The purified His6 tagged cytoplasmic domain of c-Met was diluted to a concentration of 500 ng/ml; host or cells: Sf9 insect cells (baculovirus, pFastBacHTa). The class given is biochemical. The conditions noted are these: His6 tagged cytoplasmic domain of c-Met, 1 μM ATP; read-out: cMet Delfia autophos IC-50. The procedure:
A DELFIA time resolved fluorescence assay was developed for screening of compounds that decreases the autophosphorylation thus the kinase activity of c-Met. The DELFIA assay is non-radioactive. The autophosphorylation of the c-Met is measured by an anti-phosphotyrosine antibody coupled to an Europium tag.
A major advantage of this format is that it allowed for the development of an autophosphorylation assay using Ni-chelate plates which bind the hexa-his tag on the recombinant Met kinase. The autophosphorylation assay allows one to use a known substrate, Met kinase itself, for the phosphorylation.
The assay procedure for screening is as follows. The purified His6 tagged cytoplasmic domain of c-Met was diluted to a concentration of 500 ng/ml in enzyme dilution buffer (50 mM Tris-HCl, pH8.0, 0.1% BSA) and dispensed to assay plates at a volume of 50 μl per well. Black opaque HisGrab Nickel coated 96 well plates (Pierce, Rockford, Ill.) were selected for use. Next, 2.5 μl of compound in 40% DMSO was added to test wells, 2.5 μl of 40% DMSO only was added to the negative control wells. The autophosphorylation reaction was initiated upon the addition of 50 μl of reaction buffer, 50 mM Tris-HCl, pH 8.0, 10 mM MgCl2, 0.1 mM Na3VO4, 1 mM DTT, 1 μM ATP. Plates were incubated at room temperature for 1 hour followed by 2 washes with 200 μl/well of PBS. Europium conjugated anti-phosphotyrosine antibody, Eu-PY20 from Perkin Elmer was diluted to 50 ng/ml in Delfia AB buffer (Perkin Elmer, Boston, Mass.), added to the 96 well assay plates at a volume of 100 μl/well, and incubated at room temperature for 2 hours. Assay plates were then washed 4 times each with 200 μl/well of Delfia wash buffer (Perkin Elmer). After the final wash 150 μl of Delfia Enhancement solution (Perkin Elmer) was added to each well of the assay plate and incubated at room temperature for 1 hour. Plates were read on an LJL Analyst instrument (Molecular Devices; Sunnyvale, Calif.) with filter settings of 360 excitation, 620 emission, and 410 dichroic. IC50 values were calculated using Graphpad Prism software (Graphpad Software; San Diego, Calif.).

We go through 26 compounds from US8173654B2, “Triazolopyridazine compounds” (Janssen Pharmaceutica N.V., priority 2005, dated 2012).

pIC50: −log10 of the molar value.

Chain of c-Met (P08581 956-1390 limits assumed): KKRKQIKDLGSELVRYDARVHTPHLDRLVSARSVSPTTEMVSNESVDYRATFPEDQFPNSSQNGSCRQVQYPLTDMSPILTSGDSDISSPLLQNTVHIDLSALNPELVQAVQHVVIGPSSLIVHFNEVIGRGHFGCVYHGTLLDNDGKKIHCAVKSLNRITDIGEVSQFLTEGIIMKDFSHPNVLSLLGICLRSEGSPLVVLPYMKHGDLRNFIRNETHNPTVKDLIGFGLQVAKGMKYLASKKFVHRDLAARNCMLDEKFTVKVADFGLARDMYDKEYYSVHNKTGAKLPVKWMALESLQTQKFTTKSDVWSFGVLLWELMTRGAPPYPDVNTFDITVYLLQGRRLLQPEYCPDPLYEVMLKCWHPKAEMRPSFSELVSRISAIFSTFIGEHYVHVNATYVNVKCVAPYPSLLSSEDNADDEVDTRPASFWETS

As for `c1cc2c(cc1Cc1nnc3ccc(-c4ccc(N5CCOCC5)nc4)nn13)CCO2` [Example 8, 3-(2,3-Dihydro-benzofuran-5-ylmethyl)-6-(6-morpholin-4-yl-pyridin-3-yl)-[1,2,4]triazolo[4,3-b]pyridazine], the pIC50 was 6.61.
With `O=C(c1cncc(-c2ccc3nnc(Cc4ccc5ncccc5c4)n3n2)c1)N1CCOCC1` [Example 10, Morpholin-4-yl-[5-(3-quinolin-6-ylmethyl-[1,2,4]triazolo[4,3-b]pyridazin-6-yl)-pyridin-3-yl]-methanone] the figure was 6.66; with `c1cncc(-c2ccc3nnc(Cc4ccc5ncnn5c4)n3n2)c1` [Example 12, 6-Pyridin-3-yl-3-[1,2,4]triazolo[1,5-a]pyridin-6-ylmethyl-[1,2,4]triazolo[4,3-b]pyridazine], 7.25; with `Clc1cc(Cc2nnc3ccc(-c4cccnc4)nn23)ccn1` [Example 14, 3-(2-Chloro-pyridin-4-ylmethyl)-6-pyridin-3-yl-[1,2,4]triazolo[4,3-b]pyridazine], less than 5.00.
To `c1ccc(-c2ccc3nnc(Cc4ccc5c(c4)CCO5)n3n2)nc1` [Example 19, 3-(2,3-Dihydro-benzofuran-5-ylmethyl)-6-pyridin-2-yl-[1,2,4]triazolo[4,3-b]pyridazine] belongs 6.76; to `Nc1nc2ccc(Cc3nnc4ccc(-c5cccs5)nn34)cc2o1` [Example 21, 6-(6-Thiophen-2-yl-[1,2,4]triazolo[4,3-b]pyridazin-3-ylmethyl)-benzooxazol-2-ylamine], 7.64.
With `c1ccc(Cc2nnc3ccc(-c4cccs4)nn23)cc1` [Example 24, 3-Benzyl-6-thiophen-2-yl-[1,2,4]triazolo[4,3-b]pyridazine] the figure was 5.75; with `Fc1ccc(Cc2nnc3ccc(-c4cccs4)nn23)cc1` [Example 26, 3-(4-Fluoro-benzyl)-6-thiophen-2-yl-[1,2,4]triazolo[4,3-b]pyridazine], 6.38; with `O=[N+]([O-])c1ccc(Cc2nnc3ccc(-c4cccs4)nn23)cc1` [Example 27, 3-(4-Nitro-benzyl)-6-thiophen-2-yl-[1,2,4]triazolo[4,3-b]pyridazine], 5.09.
Regarding `Nc1ccc(Cc2nnc3ccc(-c4cccs4)nn23)cc1` [Example 28, 4(6-Thiophen-2-yl-[1,2,4]triazolo[4,3-b]pyridazin-3-ylmethyl)-phenylamine], the pIC50 was 5.72.
With `CC(=O)Nc1ccc(Cc2nnc3ccc(-c4cccs4)nn23)cc1` [Example 29, N-[4(6-Thiophen-2-yl-[1,2,4]triazolo[4,3-b]pyridazin-3-ylmethyl)-phenyl]-acetamide] the figure was 7.07.
To `CCNC(=O)Nc1ccc(Cc2nnc3ccc(-c4cccs4)nn23)cc1` [Example 30, 1-Ethyl-3-[4-(6-thiophen-2-yl-[1,2,4]triazolo[4,3-b]pyridazin-3-ylmethyl)-phenyl]-urea] belongs 6.24.
To `O=c1ccc(Cc2nnc3ccc(-c4cccs4)nn23)c[nH]1` [Example 32, 5-(6-Thiophen-2-yl-[1,2,4]triazolo[4,3-b]pyridazin-3-ylmethyl)-1H-pyridin-2-one] belongs 6.52; to `[O-][n+]1ccc(Cc2nnc3ccc(-c4cccs4)nn23)cc1` [Example 34, 3-(1-Oxy-pyridin-4-ylmethyl)-6-thiophen-2-yl-[1,2,4]triazolo[4,3-b]pyridazine], 5.92; to `c1csc(-c2ccc3nnc(Cc4ccc5sccc5c4)n3n2)c1` [Example 36, 3-Benzo[b]thiophen-5-ylmethyl-6-thiophen-2-yl-[1,2,4]triazolo[4,3-b]pyridazine], 5.57.
In the case of `c1cc2c(cc1Cc1nnc3ccc(-c4ccc(CN5CCOCC5)o4)nn13)CCO2` [Example 40, 3-(2,3-Dihydro-benzofuran-5-ylmethyl)-6-(5-morpholin-4-ylmethyl-furan-2-yl)-[1,2,4]triazolo[4,3-b]pyridazine], the pIC50 is 5.97.
With `COc1cnccc1-c1ccc2nnc(Cc3ccc4c(c3)CCO4)n2n1` [Example 41, 3-(2,3-Dihydro-benzofuran-5-ylmethyl)-6-(3-methoxy-pyridin-4-yl)-[1,2,4]triazolo[4,3-b]pyridazine] the figure was 7.25.
With `Oc1ccc(Cc2nnc3ccc(-n4ccnc4)nn23)cc1` [Example 45, 4-(6-Imidazol-1-yl-[1,2,4]triazolo[4,3-b]pyridazin-3-ylmethyl)-phenol] the figure was 7.15.
For the compound `Oc1ccc(Cc2nnc3ccc(-n4cccn4)nn23)cc1` [Example 46, 4-(6-Pyrazol-1-yl-[1,2,4]triazolo[4,3-b]pyridazin-3-ylmethyl)-phenol], the pIC50 was 6.64.
For the compound `FC(F)(c1ccc2ncccc2c1)c1nnc2ccc(-c3cccs3)nn12` [Example 57, 6-[Difluoro-(6-thiophen-2-yl-[1,2,4]triazolo[4,3-b]pyridazin-3-yl)-methyl]-quinoline], the pIC50 was 9.52.
As to `Cn1cc(-c2ccc3nnc(Cc4ccc5c(ccc[n+]5[O-])c4)n3n2)cn1` [Example 63, 6-[6-(1-Methyl-1H-pyrazol-4-yl)-[1,2,4]triazolo[4,3-b]pyridazin-3-ylmethyl]-quinoline 1-oxide], the pIC50 is 6.22.
To `Clc1ccc2cc(Cc3nnc4ccc(-c5cccnc5)nn34)ccc2n1` [Example 67, 2-Chloro-6-(6-pyridin-3-yl-[1,2,4]triazolo[4,3-b]pyridazin-3-ylmethyl)-quinoline] belongs 6.05; to `c1cnc2ccc(Cc3nnc4ccc(-c5ccc6nn[nH]c6c5)nn34)cc2c1` [Example 78, 6-[6-(3H-Benzotriazol-5-yl)-[1,2,4]triazolo[4,3-b]pyridazin-3-ylmethyl]-quinoline], 6.49.
To `Cc1nc2ccc(Cc3nnc4ccc(-c5cnn(C)c5)nn34)cc2s1` [Example 82, 3-(2-Methyl-benzothiazol-6-ylmethyl)-6-(1-methyl-1H-pyrazol-4-yl)-[1,2,4]triazolo[4,3-b]pyridazine] belongs 7.77.
`N#Cc1cncc(-c2ccc3nnc(Cc4ccc5ncccc5c4)n3n2)c1` [Example 83, 5-(3-Quinolin-6-ylmethyl-[1,2,4]triazolo[4,3-b]pyridazin-6-yl)-nicotinonitrile]: the pIC50 is 7.85.
With `c1cncc(-c2ccc3nnc(Cc4cccc5ncccc45)n3n2)c1` [Example 91, 5-(6-Pyridin-3-yl-[1,2,4]triazolo[4,3-b]pyridazin-3-ylmethyl)-quinoline] the figure was 5.98.
